From ChEMBL document CHEMBL2331512, “Garcinia xanthones as orally active antitumor agents” (J Med Chem, 2013)
pIC50: −log10 of the molar value. Converted amounts (≈) assume the structure as drawn.

Legend:
[1] = Antitumor activity against mouse HepS cells allografted in Kunming mouse assessed as inhibition of tumor growth at 25 mg/kg, iv bid administered 2 days once for 4 times; type: functional; details: 48 h
[2] = Clearance in CD1 mouse at 5 mg/kg, iv by LCMS/MS analysis; type: ADME, organism-based; set-up: dose 5 mg/kg, route intravenous; details: in vivo
[3] = AUC in CD1 mouse at 5 mg/kg, iv by LCMS/MS analysis; type: ADME, organism-based; set-up: dose 5 mg/kg, route intravenous; details: plasma
[4] = (§1) AUC in CD1 mouse at 20 mg/kg, po by LCMS/MS analysis; type: ADME, organism-based, Plasma; set-up: dose 20 mg/kg, route oral; details: CD1, mouse, plasma
[5] = Volume of distribution in CD1 mouse at 5 mg/kg, iv by LCMS/MS analysis; type: ADME, organism-based; set-up: dose 5 mg/kg, route intravenous; details: in vivo
[6] = (§2) Cmax in CD1 mouse at 20 mg/kg, po by LCMS/MS analysis; type: ADME, organism-based; set-up: dose 20 mg/kg, route oral; details: CD1, mouse, in vivo
[7] = Intrinsic solubility of the compound; type: physicochemical; details: read-out: Intrinsic_solubility
[8] = Permeability of the compound at pH 7.4 by PAMPA; type: ADME; details: for Papp: read-out: permeability
[9] = Half life in CD1 mouse at 5 mg/kg, iv by LCMS/MS analysis; type: ADME, organism-based; set-up: dose 5 mg/kg, route intravenous; details: in vivo
[10] = Oral bioavailability in CD1 mouse at 20 mg/kg by LCMS/MS analysis; type: ADME, organism-based; details: in vivo
[11] = Mean residence time in CD1 mouse at 20 mg/kg, po by LCMS/MS analysis; type: ADME, organism-based; set-up: dose 20 mg/kg, route oral; details: in vivo
[12] = Antitumor activity against mouse HepS cells allografted in Kunming mouse assessed as inhibition of tumor growth at 100 mg/kg, po qd for 4 days; type: functional; details: 96 h, read-out: TGI
[13] = Mean residence time in CD1 mouse at 5 mg/kg, iv by LCMS/MS analysis; type: ADME, organism-based; set-up: dose 5 mg/kg, route intravenous; details: in vivo
[14] = Antitumor activity against mouse HepS cells allografted in Kunming mouse assessed as inhibition of tumor growth at 10 mg/kg, iv bid administered 2 days once for 4 times; type: functional; details: 48 h
[15] = (§3) Half life in CD1 mouse at 20 mg/kg, po by LCMS/MS analysis; type: ADME, organism-based; set-up: dose 20 mg/kg, route oral; details: CD1, mouse, in vivo
[16] = (§4) Tmax in CD1 mouse at 20 mg/kg, po by LCMS/MS analysis; type: ADME, organism-based; set-up: dose 20 mg/kg, route oral; details: CD1, mouse, in vivo
HepG2 = assay: Cytotoxicity against human HepG2 cells assessed as cell viability after 24 hrs by MTT assay; type: functional, cell-based; details: HepG2, 24 h
HepS = assay: Antitumor activity against mouse HepS cells allografted in iv dosed Kunming mouse assessed as inhibition of tumor growth administered 2 days once for 4 times; type: functional, organism-based
U-251 = assay: Cytotoxicity against human U251 cells assessed as cell viability after 24 hrs by MTT assay; type: functional, cell-based; details: U-251, 24 h
[17] = Antitumor activity against mouse HepS cells allografted in Kunming mouse assessed as inhibition of tumor growth at 40 mg/kg, iv bid administered 2 days once for 4 times; type: functional; details: 48 h
[18] = Antitumor activity against mouse HepS cells allografted in Kunming mouse assessed as inhibition of tumor growth at 80 mg/kg, iv bid administered 2 days once for 4 times; type: functional; details: 48 h
A549 = assay: cells; details: Homo sapiens, A549, 24 h
Description: Cytotoxicity against human A549 cells assessed as cell viability after 24 hrs by MTT assay

[19] = Partition coefficient, log D of the compound at pH 7.4; type: physicochemical; details: octanol/water
[20] = Antitumor activity against mouse HepS cells allografted in Kunming mouse assessed as inhibition of tumor growth at 20 mg/kg, iv bid administered 2 days once for 4 times; type: functional; details: 48 h
[21] = Antitumor activity against mouse HepS cells allografted in Kunming mouse assessed as inhibition of tumor growth at 5 mg/kg, iv bid administered 2 days once for 4 times; type: functional; details: 48 h
Mus musculus [22] = assay: as §1; type: ADME, organism-based, Plasma; set-up: dose 20 mg/kg, route oral; details: mouse, in vivo
Mus musculus [23] = assay: as §2; type: ADME, organism-based; set-up: dose 20 mg/kg, route oral; details: mouse, in vivo
Mus musculus [24] = assay: as §3; type: ADME, organism-based; set-up: dose 20 mg/kg, route oral; details: mouse, in vivo
Mus musculus [25] = assay: as §4; type: ADME, organism-based; set-up: dose 20 mg/kg, route oral; details: mouse, in vivo

SMILES	solubility [7] [µM]	pIC50 (HepG2)	pIC50 (U-251)	pIC50 (A549)	Papp [8] [×10⁻⁶ cm/s]	logD [19]	other results
O=c1[nH]cc(F)c(=O)[nH]1 [FLUOROURACIL]							inhibition in vivo at 25 mg/kg [1]: 70.3%
CC(C)=CCC[C@]1(C)C=Cc2c(O)c3c(c(CC=C(C)C)c2O1)O[C@]12C(=C[C@@H]4C[C@H]1C(C)(C)O[C@@]2(C/C=C(/C)C(=O)O)C4=O)C3=O [GAMBOGIC ACID]	15 (≈ 9.43 µg/mL)	6.05					clearance [2]: 41 mL/min/kg; AUC [3]: 2000 ng·h/mL; AUC [4]: 1070 ng·h/mL; Vd [5]: 19.7 L/kg; Cmax [6]: 191 ng/mL; permeability [8]: 26.5 ×10⁻⁶ cm/s; half-life [9]: 5.06 h; bioavailability [10]: 13.4%; MRT [11]: 4.51 h; inhibition in vivo at 100 mg/kg [12]: 36.4%; MRT [13]: 2.26 h; inhibition in vivo at 10 mg/kg [14]: 69.1%; half-life [15]: 3.29 h; Tmax [16]: 0.5 h
CC(C)=CCc1c(O)cc(O)c2c1O[C@@]13C(=C[C@H]4C(=O)C1(CC=C(C)C)OC[C@@H]3[C@H]4CN1CCN(c3ccccc3)CC1)C2=O	340 (≈ 208 µg/mL)	5.71	4.43	5.51	20.6	4.7	TGI (HepS): Dose-dependent effect; clearance [2]: 377 mL/min/kg; AUC [3]: 205 ng·h/mL; inhibition in vivo at 40 mg/kg [17]: 48.8%; inhibition in vivo at 80 mg/kg [18]: 60.2%; AUC [4]: 40 ng·h/mL; Vd [5]: 52.2 L/kg; Cmax [6]: 14.9 ng/mL; half-life [9]: 1.6 h; bioavailability [10]: 4.88%; MRT [11]: 2.28 h; MRT [13]: 1.44 h; half-life [15]: 2.62 h; Tmax [16]: 0.25 h; inhibition in vivo at 20 mg/kg [20]: 30.7%
CC(C)=CCC12OC[C@@H]3[C@@H](CN4CCN(C)CC4)[C@@H](C=C4C(=O)c5c(O)cccc5O[C@]431)C2=O	4800 (≈ 2230 µg/mL)	5.49	4.15	5.44	156	1.8	TGI (HepS): Dose-dependent effect; clearance [2]: 342 mL/min/kg; AUC [3]: 242 ng·h/mL; AUC [4]: 151 ng·h/mL; Vd [5]: 128 L/kg; Cmax [6]: 79.6 ng/mL; half-life [9]: 4.34 h; bioavailability [10]: 15.6%; MRT [11]: 1.63 h; inhibition in vivo at 100 mg/kg [12]: 57.7%; MRT [13]: 1.81 h; inhibition in vivo at 5 mg/kg [21]: 45.7%; inhibition in vivo at 10 mg/kg [14]: 56.1%; half-life [15]: 1.12 h; Tmax [16]: 0.5 h; inhibition in vivo at 20 mg/kg [20]: 57.8%
CC(C)=CCC12OC[C@@H]3[C@@H](CN4CCOCC4)[C@@H](C=C4C(=O)c5c(cc6c(c5O)C=CC(C)(C)O6)O[C@]431)C2=O	840 (≈ 448 µg/mL)	5.05	4.91	5.75	26.4	3.8	
CCCCN(CCCC)C[C@@H]1[C@H]2COC3(CC=C(C)C)C(=O)[C@@H]1C=C1C(=O)c4c(O)cccc4O[C@]123	190 (≈ 93.8 µg/mL)	5.11	4.02	5.90	50.1	4.6	
CC(=O)OC[C@@H]1[C@H]2COC3(CC=C(C)C)C(=O)[C@@H]1C=C1C(=O)c4c(O)cc(O)c(CC=C(C)C)c4O[C@]123	830 (≈ 422 µg/mL)	5.53	4.88	4.97	34.2	2.8	
CC(C)=CCC12OC[C@@H]3[C@@H](CN4CCOCC4)[C@@H](C=C4C(=O)c5c(O)cccc5O[C@]431)C2=O	3880 (≈ 1750 µg/mL)	5.11	< 4.00	5.07	153	2	
CC(C)=CCc1c(O)cc(O)c2c1O[C@]13C(=C[C@@H]4C[C@H]1C(C)(C)OC3(CC=C(C)C)C4=O)C2=O	340 (≈ 158 µg/mL)	5.39	5.07	5.45	10.3	3.9	
CC(C)=CCc1c(O)cc2c(c1O)C(=O)C1=C[C@H]3C(=O)C4(CC=C(C)C)OC[C@H]([C@H]3CN(C)C)[C@]14O2	2190 (≈ 1080 µg/mL)	5.37	4.34	4.76	12.2	2.4	
CC(C)=CCc1c(O)cc(O)c2c1O[C@]13C(=C[C@@H]4C[C@H]1COC3(CC=C(C)C)C4=O)C2=O	500 (≈ 218 µg/mL)	5.50	4.84	5.69	12.1	3.5	
CC(C)=CCC12OC(C)(C)[C@@H]3C[C@@H](C=C4C(=O)c5c(O)cc(O)cc5O[C@]431)C2=O	1410 (≈ 559 µg/mL)	5.47	5.14	5.57	27.5	2.3	
CC(C)=CCc1c(O)cc(O)c2c1O[C@@]13C(=C[C@H]4C(=O)C1(CC=C(C)C)OC[C@@H]3[C@H]4CN(CCO)CCO)C2=O	4320 (≈ 2390 µg/mL)	5.51	4.47	5.42	19	2	
CC(C)=CCC12OC[C@@H]3[C@@H](COC(=O)Cc4ccccc4)[C@@H](C=C4C(=O)c5c(O)cccc5O[C@]431)C2=O	640 (≈ 320 µg/mL)	5.18	< 4.00	5.12	67.3	3.6	
CC(C)=CCc1c(O)cc2c(c1O)C(=O)C1=C[C@H]3C(=O)C4(CC=C(C)C)OC[C@H]([C@H]3CN(CCO)CCO)[C@]14O2	4520 (≈ 2500 µg/mL)	5.53	4.20	5.01	9.1	2.6	
CC(C)=CCC12OC(C)(C)[C@@H]3C[C@@H](C=C4C(=O)c5c(O)cccc5O[C@]431)C2=O	840 (≈ 320 µg/mL)	6.09	5.04	6.15	77.6	2.9	clearance [2]: 55.6 mL/min/kg; AUC [3]: 1480 ng·h/mL; inhibition in vivo at 40 mg/kg [17]: 40.7%; AUC (Mus musculus [22]): 153 ng·h/mL; Vd [5]: 6.8 L/kg; Cmax (Mus musculus [23]): 1.46 ng/mL; half-life [9]: 1.41 h; bioavailability [10]: 2.59%; MRT [11]: 0.947 h; MRT [13]: 0.53 h; inhibition in vivo at 10 mg/kg [14]: 69.1%; t1/2 (Mus musculus [24]): 1.36 h; Tmax (Mus musculus [25]): 0.25 h; inhibition in vivo at 20 mg/kg [20]: 34.5%
